Source: US20250092050A1, “1-AMINOBENZO[4,5]IMIDAZO[1,2-A]PYRAZINE-3-FORMAMIDE COMPOUND, AND PREPARATION THEREFOR AND USE THEREOF” (SUN YAT-SEN UNIVERSITY, priority 2022, published 2025)
Like-named read-outs stand apart in the source and are kept apart here.

Target: adenosine A2A receptor (Homo sapiens, UniProt P29274)
Assay: Binding to the adenosine A2A receptor: displacement of radioligand [3H]-ZM241385 from membrane protein
Settings: compound 10^-4 M, 1 nM [3H]-ZM241385
Description: The specific process was as follows: A membrane protein solution (60 μg/tube, containing ADA 2 mg/mL) and a radioligand 1 nM [3H]-ZM241385 were added to each tube. Different compounds with the concentration of 10^−4 M were added into the compound tubes respectively, shaken to mix uniformly, incubated at 37° C. for 30 minutes and the reaction was terminated in a water bath. Free and bound ligands were separated by suction filtration under negative pressure using GF/C glass fiber filter paper, washed three times with precooled 50 mM Tris-HCl, about 4 mL each time. Film was removed and placed upside down on the tray (i.e., with the grid side facing up), and baked for 3 minutes until dried. Dried small circular filter membrane was put into the liquid scintillation tube in sequence, and 2 mL of scintillation solution was added. [3H] count was then performed in a Multifunction Liquid Scintillation Counter. Each junction point was provided with triple tubes. and the average value was taken. Finally. data analysis was carried out to calculate the inhibition rate of the compound on the adenosine AzA receptor: […]

[1] = membrane protein 60 μg/tube, 37° C., 30 minutes, average of triple tubes, read-out: Adenosine A2A receptor inhibition rate
[2] = read-out: inhibition rate on adenosine A2A receptors (text summary of Table 1)

Chain of adenosine A2A receptor (P29274 whole entry): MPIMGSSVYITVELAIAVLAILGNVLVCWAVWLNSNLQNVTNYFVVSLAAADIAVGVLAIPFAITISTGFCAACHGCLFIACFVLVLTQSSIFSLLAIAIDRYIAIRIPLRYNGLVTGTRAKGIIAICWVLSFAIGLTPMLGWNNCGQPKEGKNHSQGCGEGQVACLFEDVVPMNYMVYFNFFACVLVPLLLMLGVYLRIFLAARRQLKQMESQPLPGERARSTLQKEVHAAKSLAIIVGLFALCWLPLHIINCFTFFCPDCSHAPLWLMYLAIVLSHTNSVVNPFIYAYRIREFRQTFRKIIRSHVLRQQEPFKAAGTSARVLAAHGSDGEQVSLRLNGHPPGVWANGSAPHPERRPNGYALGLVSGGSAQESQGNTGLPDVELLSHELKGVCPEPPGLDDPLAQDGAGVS

| Structure (SMILES) | inhibition at 100 µM [1] [%] | inhibition at 100 µM [2] [%] | Adenosine A2A receptor inhibition rate (membrane protein 60 μg/tube, 37° C., 30 minutes, average of triple tubes) [%] |
| --- | --- | --- | --- |
| CCCCCNC(=O)c1cn2c(nc3ccccc32)c(N)n1 [Compound 14b] | 71 ± 4.02 | – | – |
| Nc1nc(C(=O)NCCO)cn2c1nc1ccccc12 [Compound 14f] | 65.6 ± 4.23 | – | – |
| CC(C)(NC(=O)c1cn2c(nc3ccccc32)c(N)n1)c1ccccn1 [Compound 14x] | 75.3 ± 4.07 | > 70 | – |

Other lines, results leading:

| inhibition at 100 µM [1] [%] | inhibition at 100 µM [2] [%] | Adenosine A2A receptor inhibition rate (membrane protein 60 μg/tube, 37° C., 30 minutes, average of triple tubes) [%] | Structure (SMILES) |
| --- | --- | --- | --- |
| 86.5 ± 1.02 | > 80 | – | CC(NC(=O)c1cn2c(nc3ccccc32)c(N)n1)c1ccccn1 (stereo not drawn) [Compound 14u] |
| 61.6 ± 3.91 | – | – | CC(NC(=O)c1cn2c(nc3ccccc32)c(N)n1)c1cccc2cccnc12 (stereo not drawn) [Compound 14v] |
| – | > 70 | 78.27 ± 2.31 | CC(NC(=O)c1cn2c(nc3ccccc32)c(N)n1)c1cccc2cccnc12 (stereo not drawn) [Compound 14w] |
